# Reference: patent US20100216661A1, “Diagnostic Assay” (priority 2007, published 2010)
# Tested on: anti-RhD monoclonal antibody T22 (LHM 169/80)
# Experiment: Biopanning of phage-peptide libraries with anti-RhD T22
# Type: binding, Human
# Conditions: not given
# From the text: (§1) Three different phage libraries from New England Biolabs. (Ph.D. 7 and Ph.D. 12 displaying linear 7- and 12-mer peptides, respectively and Ph.D. C7C displaying 7-mer peptides constrained by a disulphide bridge at their termini) and a linear 15mer library (kindly provided by Prof. George P. Smith, University of Missouri) were used in biopanning experiments with 10 different monoclonal antibodies and a polyclonal preparation (Table 1).
# (§2) For each target antibody/library combination, a separate well of a 96-well Immulon 4 flat-bottomed ELISA plate (Thermo Labsystems) was coated with 5 μg of antibody in 150 μl ELISA coating buffer (15 mM Na2CO3, 35 mM NaHCO3, pH9.6). Plates were sealed and incubated at 4° C. overnight. Unbound antibody was discarded and 350 μl of blocking buffer (0.1M NaHCO3/3% skimmed milk powder) was added to each well. Plates were sealed and incubated for 1 hour at 4° C. The blocking buffer was removed and the wells were washed six times with 300 μl TBS/0.1% Tween 20. Approximately 2×10^11 plaque forming units (pfu) in 100 μl TBS/0.1% Tween 20 were added to each well and the plates were incubated at room temperature for 1 hour. Wells were washed ten times with 300 μl TBS/0.1% Tween 20. Bound phage were eluted by incubation with 100 μl of 0.2M glycine-HCl/BSA, pH2.2 (1 mg/ml) for 10 minutes, then neutralised with 15 μl of 1M Tris-HCL (pH9.1). An aliquot of the Round 1 eluate was removed and titred. The remainder of the eluted phage were amplified by infection of E. coli ER2538 cells for 4.5 hours at 37° C. The cultures were centrifuged for 10 minutes at 10,000 rpm at 4° C. The supernatants were recovered, ⅙ volume PEG/NaCl (20% polyethylene glycol 8000; 2.5M NaCl) added, then incubated overnight at 4° C. The PEG-precipitated phage were centrifuged at 10,000 rpm for 15 minutes at 4° C. The supernatant was removed and the phage pellet resuspended in 200 μl TBS. Two further rounds of panning were undertaken and approximately 2×10^11 pfu of the Round 2 or Round 3 amplified eluates were used as input phage. Round 3 eluates were titrated but not amplified. Individual plaques were amplified and subjected to PCR amplification, prior to DNA sequence analysis. The specificity of peptide-antibody binding was subsequently determined using both phage ELISA and SPOTs techniques.
row,Substance,Panning Antibody (antibody that selected the phage-peptide in biopanning)
1,RhD 32 (WPCHPICLSPRG),RhD T22
2,RhD 33 (AMDCFPICLWNP),RhD T22
3,RhD 34 (WNCFPICHASGL),RhD T22
4,RhD 35 (VYALGCWPICHK),RhD T22
5,RhD 36 (HHVFTPNCYPIC),RhD T22
6,RhD 38 (GNWLFNSCYPLCFPL),RhD T22
7,RhD 39 (AFLGHSHWFPSVASR),RhD T22
8,RhD 40 (QLLCFPICRPEPPVS),RhD T22

# Tested on: anti-Fy^b monoclonal antibody (LM447)
# Experiment: Phage ELISA (capture ELISA) of phage-peptides on coated anti-Fy^b antibody
# Type: binding, Murine
# Conditions: FIG. 1; LM447 coated from 10 μg/ml stock; phage culture supernatant; OD450 greater than 0.1 considered positive; 20 phage assayed
# Method: (§3) The ability of the recovered phage-peptides to react with the antibodies used in their selection was confirmed by capture ELISA. A 10 μg/ml stock of appropriate monoclonal antibody was prepared in ELISA coating buffer and 150 μl aliquots were added to wells of an Immulon 4 ELISA plate, and then incubated overnight at 4° C. Unbound antibody was discarded and the wells were blocked with 350 μl of blocking buffer (0.1M NaHCO3/3% skimmed milk powder) for 1 hour at 4° C. The wells were washed three times with 300 μl TBS/0.5% Tween 20 and 100 μl of selected phage culture supernatants were added to appropriate wells for 1 hour at room temperature. Unbound phage were removed and the wells washed six times with 300 μl TBS/0.5% Tween 20. A 1:5000 dilution of horseradish peroxidase (HRP) conjugated anti-M13, secondary antibody was prepared in blocking buffer and 100 μl aliquots added to each well. Following incubation for 1 hour at room temperature the wells were washed six times with 300 μl TBS/0.5% Tween 20. To develop the reactions, a 200 μl aliquot of o-phenylenediamine dihydrochloride (OPD) substrate (Sigma) was added to each well. The absorbance at 450 nm was measured, following incubation at room temperature for 1 hour, by a microplate ELISA reader. An OD450 signal greater than 0.1 was considered positive.
# The phage ELISA results confirmed the binding of the anti-Fy^b monoclonal, LM447. A 10 μg/ml stock of this monoclonal antibody was prepared in ELISA coating buffer and 150 μl aliquots were added to wells of an Immulon 4 ELISA plate, and then incubated overnight at 4° C. Unbound antibody was discarded and the wells were blocked with 350 μl of blocking buffer for 1 hour at 4° C. The wells were washed three times with 300 μl TBS/0.5% Tween 20 and 100 μl of selected phage culture supernatants were added to appropriate wells for 1 hour at room temperature. Unbound phage were removed and the wells washed six times with 300 μl TBS/0.5% Tween 20. A 1:5000 dilution of horseradish peroxidase (HRP) conjugated anti-M13, secondary antibody was prepared in blocking buffer and 100 μl aliquots added to each well. Following incubation for 1 hour at room temperature the wells were washed six times with 300 μl TBS/0.5% Tween 20. To develop the reactions, 200 μl aliquots of o-phenylenediamine dihydrochloride (OPD) substrate (Sigma) was added to each well. The absorbance at 450 nm was measured following incubation at room temperature for 1 hour. The absorbance values at 450 nm, confirmed the binding of 14 (Peptides Fyb1, Fyb2, Fyb4-5, Fyb7-13, Fyb25, 27 & 28) of the 20 phage assayed (see FIG. 1).
row,Substance,Phage ELISA binding of phage-peptide to anti-Fy^b antibody LM447 (absorbance at 450 nm)
1,MFQEHTPAFGGL [Fyb7],phage ELISA signals equally as strong as Peptides Fyb12 and Fyb13
2,MFQPTHWGTRLS [Fyb9],phage ELISA signals equally as strong as Peptides Fyb12 and Fyb13
3,MYQDTPPPRKNV [Fyb1],phage ELISA signals equally as strong as Peptides Fyb12 and Fyb13

# Same assay, conditions: FIG. 1; LM447 coated from 10 μg/ml stock; phage culture supernatant; OD450 greater than 0.1 considered positive; 20 phage assayed; listed as Fybll
row,Substance,Phage ELISA binding of phage-peptide to anti-Fy^b antibody LM447 (absorbance at 450 nm)
1,MVQELPFVLRSK [Fyb11],phage ELISA signals equally as strong as Peptides Fyb12 and Fyb13

# Tested on: anti-Fy^a monoclonal antibody (LM487)
# Experiment: Phage ELISA (capture ELISA) of phage-peptides on coated anti-Fy^a antibody
# Type: binding, Murine
# Conditions: FIG. 3; 19 Fya phage-peptide clones (Fya1-18 & Fya25); OD450 greater than 0.1 considered positive
# Method: as §3
# Phage ELISA analysis of 19 “Fy^a” phage-peptide clones (Peptides Fya1-18 & Fya25; see Table 3 for sequence details) confirmed the binding specificity of the LM487 antibody for the Fy^a phage-peptides.
row,Substance,Phage ELISA binding of phage-peptide to anti-Fy^a antibody LM487
1,"Fya2: Fya peptide mimotope, Table 3 (TNLRLPA)",failed to bind
2,"Fya14: Fya peptide mimotope, Table 3 (GDWLHW)",failed to bind
3,"Fya18: Fya peptide mimotope, Table 3 (PSPGQI)",failed to bind

# Tested on: anti-RhE monoclonal antibody E0002
# Experiment: SPOTs membrane hybridisation with anti-RhE monoclonal E0002
# Type: binding, Human
# Conditions: FIG. 9; 36 RhE peptide mimotopes; CPep75 (Spot 37), CPep76 (Spot 38) negative controls
# Method: (§4) The peptide mimotopes were synthesised by the SPOT method (Frank; 1992) using F-moc chemistry. The peptides were anchored to an amino-PEG derivatised cellulose membrane (Intavis AG) and synthesised as discrete spots. Synthesis was by stepwise elongation of the peptide chain from C-terminus to the N-terminus, by manual pipetting of the respective amino acids, according to the Sigma Genosys protocol. Incubation times were modified when using Intavis AG membranes. After addition of the final amino acid, the terminal residues and side chains of the peptides were deprotected and the membrane was washed with methanol; air dried and then stored at −20° C. prior to use.
# (§5) A membrane was placed in a 50 ml Falcon tube and blocked overnight at 4° C. with gentle agitation in TBS/0.25% Tween 20/5% skimmed milk powder. A 2 μg/ml dilution of the primary (1°) antibody (monoclonal or polyclonal) was prepared in TBS/0.25% Tween20/5% skimmed milk powder before incubation with the membrane for 1 hour at room temperature on a spiral rotor. Following 4 washes, each for 5 minutes with 20 ml of TBS/0.25% Tween20, the membrane was incubated for 1 hour at room temperature with a 1/5000 dilution of the secondary (2°) antibody, prepared in TBS/0.25% Tween20/5% skimmed milk powder. Peroxidase labelled rabbit anti-mouse IgG (Sigma) was used for the detection of the murine anti-Fy^a (LM487) and anti-Fy^b (LM447) 1° antibodies and peroxidase labelled goat anti-human IgG (Pharmacia) for the detection of the human 1° antibodies. Following 4 washes, each for 5 minutes with 20 ml of TBS/0.25% Tween20, the membrane was blotted to remove excess fluid. Bound antibody was detected by chemiluminescence. ECL detection reagents (Amersham Biosciences) were mixed and overlaid on the membrane for 2 minutes. The chemiluminescent substrate was removed and the membrane blotted to remove excess fluid. Positive spots were visualised following exposure to Hyperfilm ECL (Amersham Biosciences) for a series of short incubation times (5 seconds to 10 minutes).
# The RhD, RhE and Rhe peptide mimotopes (see Tables 4 & 5) were synthesised by SPOTs and hybridisation of the membranes was undertaken with the appropriate antibodies (Table 1). FIGS. 7-10 show examples of peptide mimotopes reacting specifically with the antibody originally used in their selection.
row,Substance,SPOTs binding of anti-RhE monoclonal antibody E0002
1,"RhE25: RhE peptide mimotope, Table 5 (GLSYYALITRYLGAA)",Specific binding

# Tested on: anti-Fy^b monoclonal antibody (LM447)
# Experiment: SPOTs membrane hybridisation with anti-Fy^b antibody
# Type: binding, Murine
# Conditions: FIG. 2; 20 Fyb peptides in duplicate; CPep75 (Spot 21) positive control; 2 μg/ml primary antibody; chemiluminescence
# Method: as §4, §5
row,Substance,SPOTs binding of anti-Fy^b antibody LM447 to membrane-synthesised peptide
1,MFQEHTPAFGGL [Fyb7],failed to react
2,MFQPTHWGTRLS [Fyb9],failed to react
3,MVQELPFVLRSK [Fyb11],failed to react
4,MYQDTPPPRKNV [Fyb1],failed to react
5,"PDGDYDANLEAAAP [CPep75, 14-mer immunisation peptide used in the development of the LM447 antibody, reference compound]",Binding was also observed
6,TFQPRSWPNIDL [Fyb12],successfully bound
7,TFQYLDPPPFTP [Fyb13],successfully bound

# Same assay, conditions: FIG. 5; Spots 1-37 = Fya 1-37; Spots 38-40 = Fya17, Fya25, Fya35; Spot 41 Cpep75, 42 Cpep76, 43 CPep118, 44 Fyb1; membranes hybridised in parallel with both antibodies
row,Substance,Reciprocal SPOTs hybridisation: binding of anti-Fy^b monoclonal antibody
1,"PDGDYDANLEAAAP [CPep75, 14-mer immunisation peptide used in the development of the LM447 antibody, reference compound]",capable of binding the anti-Fy^b antibody

# Same assay, conditions: FIG. 6; 16 peptides Fyb72-87; signal dramatically lower than positive control CPep75 (Spot 17)
row,Substance,SPOTs binding of anti-Fy^b antibody LM447 to consensus sequence-derived substituted peptides
1,MFQPDNPPTKNP [Fyb84],capable of binding
2,MFQPDNPPTKNV [Fyb85],capable of binding

# Tested on: anti-RhD monoclonal antibody T27 (LHM169/81)
# Experiment: Biopanning of phage-peptide libraries with anti-RhD T27
# Type: binding, Human
# Conditions: not given
# From the text: as §1, §2
row,Substance,Panning Antibody (antibody that selected the phage-peptide in biopanning)
1,RhD 1 (GLFKIQP),RhD T27
2,RhD 2 (LGHHNPH),RhD T27
3,RhD 3 (NLLPAKL),RhD T27
4,RhD 4 (HTALSTS),RhD T27
5,RhD 5 (TPGSGQF),RhD T27
6,RhD 6 (FSPNNSETTNYT),RhD T27
7,RhD 7 (TTVPDTWVLFPR),RhD T27
8,RhD 8 (SNVPLHWILSPR),RhD T27
9,RhD 9 (WHFEWWRATPSG),RhD T27
10,RhD 10 (NYPAVVSNSLLA),RhD T27
11,RhD 11 (DVYDTRPYHGFM),RhD T27
12,RhD 12 (HQNPWLLWPRGF),RhD T27
13,RhD 13 (VIDWLLCPRGFSACM),RhD T27
14,RhD 14 (DRRIFWWSLRSAPGA),RhD T27
15,RhD 15 (LHAWHRNTIGWWIGF),RhD T27
